Assay results published in the NIST ThermoML archive (doi:10.1016/j.jct.2016.03.020).

Conditions: Liquid, Gas chromatography

Cc1coc2c1CC[C@@H](C)C2 [(R)-menthofuran]
Conditions	vapor or sublimation pressure [kPa]
298.15 K	0.036
374.3 K	2.93
380 K	3.76
400 K	8.37
420 K	17.06
482.4 K	101.23
